In patent publication US9567345B2, “Pharmaceutically active pyrazolo-triazine derivatives” (LEAD DISCOVERY CENTER GMBH, priority 2012, dated 2017):
pIC50: −log10 of the molar value. Read-outs that look alike come from different tables or passages of the source.

How the values were obtained:
CDK7/CycH/Mat1 = CDK7/CycH/Mat1 (Homo sapiens, UniProt P50613); assay: CDK7 Enzymatic Activity Assay (Lance Kinase Activity Assay, FRET); type: biochemical; details: for IC50: CDK7/CycH/Mat1, 25 μM ATP final, class ranges, read-out: CDK7: IC50 [nM] for CDK7 inhibition
Experimental: (§1) This protocol describes how the Lance Kinase Activity Assay was performed to determine IC50 values of compounds of general formula (I) against CDK/Cyclin complexes. The principle behind this enzymatic assay is based upon the phosphorylation of the Ulight-Peptide Substrat. It is detected by using a specific EU-labeled anti-phospho peptide antibody.
(§2) Binding of an inhibitor to the kinase prevents phosphorylation of the Ulight-MBP Substrat, resulting in a loss of FRET.
CDK7 Enzymatic Activity Assay
(§3) The compounds of general formula (I) exemplary summarized in Table 1 were diluted from a 10 mM DMSO stock solution 1:10 in a total volume of 15 μl DMSO. This compound predilution was then serial diluted 1:3 over 8 steps in DMSO and briefly spun down. Each compound solution was now diluted 1:20 in Enzymatic Buffer (HEPES: 50 mM, pH: 7.5; MgCl2: 10 mM; EGTA: 1 mM; DTT: 2 mM; Tween-20: 0.01%), mixed thoroughly and spun down.
(§4) For positive controls, 2 μl of DMSO working solution were mixed with 6 μl CDK7/CycH/Mat1/substrate working solution and 2 μl ATP working solution. Positive and negative controls were calculated from at least 8 different wells. The 384 well plates were mixed in a Teleshaker plate mixer (Beckman Coulter, Brea, Calif., USA) at 2000 rpm for 40 sec, and incubated for 1 h at room temperature before addition of 10 μl LANCE Detection Buffer (1×; EDTA: […]; Eu-Anti-P-MBP: 4 nM) per well. Plates were mixed in a Teleshaker plate mixer (Beckman Coulter, Brea, Calif., USA) at 2000 rpm for 40 sec, followed by incubation with Detection Buffer for 1 h, and reading. […] IC50 values were determined from the sigmoidal dose response curves with the software Quattro Workflow (Quattro GmbH, Munich, Germany).

CDK9/Cyclin T1 = CDK9/Cyclin T1 (Homo sapiens, UniProt P50750); assay: CDK9 Enzymatic Activity Assay (Lance Kinase Activity Assay, FRET); type: biochemical; details: for IC50: Table 5B, class symbols per IC50 [nM] ranges of b581, read-out: CDK9: Selectivity of CDK7 inhibition over CDK9 inhibition
Experimental: as §1, §2
CDK9 Enzymatic Activity Assay
as §3
as §4, with “CDK9/cyclin T1/substrate” for “CDK7/CycH/Mat1/substrate”

CDK9/Cyclin T1, sequence (P50750 whole entry): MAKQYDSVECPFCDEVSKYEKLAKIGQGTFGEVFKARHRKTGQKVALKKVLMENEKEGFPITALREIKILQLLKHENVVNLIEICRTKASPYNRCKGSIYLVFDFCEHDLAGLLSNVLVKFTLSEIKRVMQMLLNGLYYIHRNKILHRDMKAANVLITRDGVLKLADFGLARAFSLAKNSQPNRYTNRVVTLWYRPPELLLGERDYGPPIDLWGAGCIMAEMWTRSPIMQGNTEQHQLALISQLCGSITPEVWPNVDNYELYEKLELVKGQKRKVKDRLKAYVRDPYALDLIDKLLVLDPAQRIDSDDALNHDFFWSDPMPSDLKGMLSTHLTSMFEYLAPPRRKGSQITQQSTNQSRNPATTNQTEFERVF
CDK9/Cyclin T1, sequence (O60563 whole entry partner): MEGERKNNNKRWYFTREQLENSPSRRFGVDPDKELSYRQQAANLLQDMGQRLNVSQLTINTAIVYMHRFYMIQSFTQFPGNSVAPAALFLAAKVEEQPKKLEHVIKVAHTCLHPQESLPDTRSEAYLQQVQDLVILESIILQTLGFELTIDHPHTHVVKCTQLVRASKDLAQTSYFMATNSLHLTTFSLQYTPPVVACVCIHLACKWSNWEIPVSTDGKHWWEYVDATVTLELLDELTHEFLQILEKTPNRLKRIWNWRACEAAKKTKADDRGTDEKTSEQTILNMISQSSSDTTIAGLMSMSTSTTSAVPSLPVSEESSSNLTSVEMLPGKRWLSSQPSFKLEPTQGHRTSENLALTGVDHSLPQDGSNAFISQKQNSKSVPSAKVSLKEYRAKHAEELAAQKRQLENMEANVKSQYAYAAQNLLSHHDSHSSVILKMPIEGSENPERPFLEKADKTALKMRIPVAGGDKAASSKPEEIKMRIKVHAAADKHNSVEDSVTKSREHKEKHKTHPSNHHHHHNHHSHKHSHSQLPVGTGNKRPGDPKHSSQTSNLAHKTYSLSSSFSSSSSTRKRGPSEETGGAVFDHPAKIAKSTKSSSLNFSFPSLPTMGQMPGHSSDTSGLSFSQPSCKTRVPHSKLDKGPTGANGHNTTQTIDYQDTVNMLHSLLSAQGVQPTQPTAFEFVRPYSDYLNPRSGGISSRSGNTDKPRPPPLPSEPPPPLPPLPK
CDK7/CycH/Mat1, sequence (P50613 whole entry): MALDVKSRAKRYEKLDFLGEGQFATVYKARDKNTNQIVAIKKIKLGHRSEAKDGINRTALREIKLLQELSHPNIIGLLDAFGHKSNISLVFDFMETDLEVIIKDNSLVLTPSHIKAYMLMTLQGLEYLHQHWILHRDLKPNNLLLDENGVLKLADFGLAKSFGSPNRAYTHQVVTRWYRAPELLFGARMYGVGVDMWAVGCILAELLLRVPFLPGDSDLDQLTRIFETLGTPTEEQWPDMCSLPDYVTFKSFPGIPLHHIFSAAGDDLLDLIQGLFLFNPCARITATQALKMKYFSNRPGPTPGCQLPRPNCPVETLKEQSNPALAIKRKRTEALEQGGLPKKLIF

IC50 (CDK7/CycH/Mat1) [nM]	IC50 (CDK9/Cyclin T1) [nM]	pIC50 (CDK7/CycH/Mat1; Table 6, read-out: IC50 CDK7)	Selectivity CDK7 over CDK9 (CDK9/Cyclin T1; Table 6) [fold]	Structure (SMILES)
< 5	> 2500			CC(C)c1cnn2c(NCc3ccccc3-c3nnnn3C)nc(N3CCC4(CCCN4)CC3)nc12 [(VIII-18), 8-isopropyl-N-(2-(1-methyl-1H-tetrazol-5-yl)benzyl)-2-(1,8-diazaspiro[4.5]decan-8-yl)pyrazolo[1,5-a][1,3,5]triazin-4-amine]
< 5	500 to 2500			CC(C)c1cnn2c(NCc3ccccc3-n3ccnc3)nc(OC3CCNCC3)nc12 [(VII-19), N-(2-(1H-imidazol-1-yl)benzyl)-8-isopropyl-2-(piperidin-4-yloxy)pyrazolo[1,5-a][1,3,5]triazin-4-amine]
5 to 10	50 to 500			CC(C)c1cnn2c(NCc3c(F)cccc3F)nc(OC3CCN(C)CC3)nc12 [(VII-64), N-(2,6-difluorobenzyl)-8-isopropyl-2-((1-methylpiperidin-4-yl)oxy)pyrazolo[1,5-a][1,3,5]triazin-4-amine]
< 5	> 2500			CC(C)c1cnn2c(N[C@@H](C)c3cccc4ccccc34)nc(OC3CCN(C)CC3)nc12 [(VII-69), (S)-8-isopropyl-2-((1-methylpiperidin-4-yl)oxy)-N-(1-(naphthalen-1-yl)ethyl)pyrazolo[1,5-a][1,3,5]triazin-4-amine]
> 25	> 2500			CC(C)NS(=O)(=O)c1ccccc1CNc1nc(O[C@@H]2CCCNC2)nc2c(C(C)C)cnn12 [(VII-105), (R)-N-isopropyl-2-(((8-isopropyl-2-(piperidin-3-yloxy)pyrazolo[1,5-a][1,3,5]triazin-4-yl)amino)methyl)benzenesulfonamide]
< 5	> 2500			CC(C)c1cnn2c(NCc3ccccc3-n3cccn3)nc(N3CCC4(CC3)CNC4)nc12 [(VIII-16), N-(2-(1H-pyrazol-1-yl)benzyl)-8-isopropyl-2-(2,7-diazaspiro[3.5]nonan-7-yl)pyrazolo[1,5-a][1,3,5]triazin-4-amine]
< 5	> 2500			CC(C)c1cnn2c(NCc3ccccc3-n3cccn3)nc(N3CCC4(CNC4)C3)nc12 [(VIII-07), N-(2-(1H-pyrazol-1-yl)benzyl)-8-isopropyl-2-(2,6-diazaspiro[3.4]octan-6-yl)pyrazolo[1,5-a][1,3,5]triazin-4-amine]
< 5	> 2500			CC(C)c1cnn2c(NCc3ccccc3-c3cccnc3)nc(O[C@@H]3CCCNC3)nc12 [(VII-46), (R)-8-isopropyl-2-(piperidin-3-yloxy)-N-(2-(pyridin-3-yl)benzyl)pyrazolo[1,5-a][1,3,5]triazin-4-amine]
< 5	500 to 2500			CC(C)c1cnn2c(NCc3ccccc3-n3cncn3)nc(O[C@@H]3CCCNC3)nc12 [(VII-20), (R)-N-(2-(1H-1,2,4-triazol-1-yl)benzyl)-8-isopropyl-2-(piperidin-3-yloxy)pyrazolo[1,5-a][1,3,5]triazin-4-amine]
5 to 10	> 2500			CC(C)c1cnn2c(NCc3ccccc3-n3cccn3)nc(N3CC4(CNC4)C3)nc12 [(VIII-10), N-(2-(1H-pyrazol-1-yl)benzyl)-8-isopropyl-2-(2,6-diazaspiro[3.3]heptan-2-yl)pyrazolo[1,5-a][1,3,5]triazin-4-amine]
< 5	> 2500			CC(C)c1cnn2c(NCc3ccccc3-n3cccn3)nc(N3CCC4(CCCCN4)C3)nc12 (stereo not shown) [(VIII-06), N-(2-(1H-pyrazol-1-yl)benzyl)-8-isopropyl-2-(2,6-diazaspiro[4.5]decan-2-yl)pyrazolo[1,5-a][1,3,5]triazin-4-amine]
< 5	> 2500			CC(C)c1cnn2c(NCc3ccccc3-c3nnn(C)n3)nc(N3CCC4(CCCN4)CC3)nc12 [(VIII-19), 8-isopropyl-N-(2-(2-methyl-2H-tetrazol-5-yl)benzyl)-2-(1,8-diazaspiro[4.5]decan-8-yl)pyrazolo[1,5-a][1,3,5]triazin-4-amine]
< 5	> 2500			Cc1nccn1-c1ccccc1CNc1nc(OC2CCN(C)CC2)nc2c(C(C)C)cnn12 [(VII-75), 8-isopropyl-N-(2-(2-methyl-1H-imidazol-1-yl)benzyl)-2-((1-methylpiperidin-4-yl)oxy)pyrazolo[1,5-a][1,3,5]triazin-4-amine]
10 to 25	> 2500			CC(C)c1cnn2c(NCc3ccccc3C#N)nc(OC3CCN(C)CC3)nc12 [(VII-55), 2-(((8-isopropyl-2-((1-methylpiperidin-4-yl)oxy)pyrazolo[1,5-a][1,3,5]triazin-4-yl)amino)methyl)benzonitrile]
< 5	> 2500			COc1ccccc1[C@H](C)Nc1nc(OC2CCN(C)CC2)nc2c(C(C)C)cnn12 [(VII-67), (S)-8-isopropyl-N-(1-(2-methoxyphenyl)ethyl)-2-((1-methylpiperidin-4-yl)oxy)pyrazolo[1,5-a][1,3,5]triazin-4-amine]
< 5	> 2500			CC(C)c1cnn2c(NCc3ccccc3-n3cccn3)nc(N3CCC34CCNC4)nc12 (stereo not shown) [(VIII-28), N-(2-(1H-pyrazol-1-yl)benzyl)-8-isopropyl-2-(1,6-diazaspiro[3.4]octan-1-yl)pyrazolo[1,5-a][1,3,5]triazin-4-amine]
< 5	> 2500	> 8.30	992	CCOc1ccccc1CNc1nc(OC2CCN(C)CC2)nc2c(C(C)C)cnn12 [(VII-70), N-(2-ethoxybenzyl)-8-isopropyl-2-((1-methylpiperidin-4-yl)oxy)pyrazolo[1,5-a][1,3,5]triazin-4-amine]
< 5	> 2500			CC(C)c1cnn2c(NCc3ccccc3-n3cccn3)nc(N3CC4(CCCNC4)C3)nc12 [(VIII-05), N-(2-(1H-pyrazol-1-yl)benzyl)-8-isopropyl-2-(2,6-diazaspiro[3.5]nonan-2-yl)pyrazolo[1,5-a][1,3,5]triazin-4-amine]
10 to 25	> 2500			CC(C)c1cnn2c(NCc3ccccc3-n3cccn3)nc(N3CCCC4(CCCCN4)C3)nc12 (stereo not shown) [(VIII-15), N-(2-(1H-pyrazol-1-yl)benzyl)-8-isopropyl-2-(1,8-diazaspiro[5.5]undecan-8-yl)pyrazolo[1,5-a][1,3,5]triazin-4-amine]
< 5	> 2500			CC(C)c1cnn2c(NCc3ccccc3-n3cccn3)nc(N3CC4(CCNCC4)C3)nc12 [(VIII-12), N-(2-(1H-pyrazol-1-yl)benzyl)-8-isopropyl-2-(2,7-diazaspiro[3.5]nonan-2-yl)pyrazolo[1,5-a][1,3,5]triazin-4-amine]
10 to 25	> 2500			CC(C)c1cnn2c(NCc3ccccc3-n3cccn3)nc(N3CCC34CCCNC4)nc12 (stereo not shown) [(VIII-04), N-(2-(1H-pyrazol-1-yl)benzyl)-8-isopropyl-2-(1,6-diazaspiro[3.5]nonan-1-yl)pyrazolo[1,5-a][1,3,5]triazin-4-amine]
5 to 10	> 2500			CC(C)c1cnn2c(NCc3ccccc3-n3cccn3)nc(N3CCC4(CCNC4)CC3)nc12 [(VIII-09), N-(2-(1H-pyrazol-1-yl)benzyl)-8-isopropyl-2-(2,8-diazaspiro[4.5]decan-8-yl)pyrazolo[1,5-a][1,3,5]triazin-4-amine]
< 5	> 2500			CC(C)c1cnn2c(NCc3ccccc3-n3cccn3)nc(N3CCC4(CCN4)CC3)nc12 [(VIII-20), N-(2-(1H-pyrazol-1-yl)benzyl)-8-isopropyl-2-(1,7-diazaspiro[3.5]nonan-7-yl)pyrazolo[1,5-a][1,3,5]triazin-4-amine]
5 to 10	> 2500			CC(C)c1cnn2c(NCc3ccccc3-n3cccn3)nc(N3CCC34CNC4)nc12 [(VIII-08), N-(2-(1H-pyrazol-1-yl)benzyl)-8-isopropyl-2-(1,6-diazaspiro[3.3]heptan-1-yl)pyrazolo[1,5-a][1,3,5]triazin-4-amine]
< 5	> 2500			CC(C)c1cnn2c(NCc3ccccc3S(=O)(=O)N(C)C)nc(N3CCC4(CCCN4)CC3)nc12 [(VIII-35), 2-(((8-isopropyl-2-(1,8-diazaspiro[4.5]decan-8-yl)pyrazolo[1,5-a][1,3,5]triazin-4-yl)amino)methyl)-N,N-dimethylbenzenesulfonamide]
